How the values were obtained:
Spanishneedles = test: Test D Spanishneedles; format: in vivo, Bidens bipinnata; conditions: Postemergence, 0 to 100 scale
guineagrass = test: Test D guineagrass; format: in vivo, Panicum maximum; conditions: Postemergence, 0 to 100 scale
Green foxtail [1] = test: Test D green foxtail; format: in vivo; conditions: Postemergence, 0 to 100 scale, 0 no injury, 100 complete control
Green foxtail [2] = test: Test D green foxtail; format: in vivo; conditions: Postemergence, 0 to 100 scale, 0 no injury, 100 complete control; remark: listed apart in the source
common ragweed = test: Test D common ragweed; format: in vivo, Ambrosia elatior; conditions: Postemergence, 0 to 100 scale
itchgrass = test: Test D itchgrass; format: in vivo, Rottboellia exaltata; conditions: Postemergence, 0 to 100 scale
windgrass = test: Test E windgrass; format: in vivo, Apera spica-venti; conditions: Postemergence
Method in brief: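 Compounds formulated in non-phytotoxic solvent mixture with surfactant; for postemergence, sprayed on plants at 1- to 4-leaf stage grown in 60:40 sandy loam/greenhouse potting mix. Kept in greenhouse ~21 to 28 days, then visually rated against untreated controls.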

Green foxtail [3] = test: Test D green foxtail; format: in vivo; conditions: Rate 250 g/ha; Postemergence; 0 to 100 scale
[4] = system: Chenopodium album (CHEAL); test: Test F preemergence, alone and in mixture with rimsulfuron, CHEAL; format: in vivo; conditions: 21 days after treatment, 0-100 scale
Procedure: Abutilon theophrasti (ABUTH), Chenopodium album (CHEAL), Amaranthus rudis (AMATA), Setaria faberii (SETFA), Panicum dichotomiflorum (PANDI), and Digitaria sanguinalis (DIGSA) were grown from seed in pots of an artificial potting mixture in a greenhouse. Compounds of the present invention were applied at 70 and 105 g ai/ha preemergence. Rimsulfuron was applied at 8.8 and 17.5 g ai/ha. Mixtures of the compounds of the present invention and rimsulfuron were also applied.
Following application, the plants were maintained by watering as needed. A fertilizer solution of Peter's 20-20-20 (10 pounds/5 gallons of water) plus Sprint 330, a Iron Chelate micronutrient, (113.5 grams/5 gallons of water) was injected into the water with an Anderson fertilizer injection system to provide approximately 219 ppm of nitrogen with each watering. Artificial lighting was used to supplement natural light to produce a 14 hour photoperiod and: an additional one hour light period was used between 1:00 am to 2:00 am for a night interruption. Greenhouse temperatures were targeted for 27° C. in the day and 21° C. at night. At 21 days after treatment, all plants were evaluated for injury as compared to control plants that were sprayed only with non-phytotoxic solvent.
Colby's equation was used to calculate the expected additive herbicidal effect of the mixtures of Compound 21 and the mixture partners listed above. […]

[5] = system: Digitaria sanguinalis (DIGSA); test: Test F preemergence, alone and in mixture with rimsulfuron, DIGSA; format: in vivo; conditions: 21 days after treatment, 0-100 scale
Method in brief: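 Greenhouse pot plants treated preemergence with compound at 70 and 105 g ai/ha, rimsulfuron at 8.8 and 17.5 g ai/ha, or mixtures; 27° C day/21° C night, 14 hour photoperiod. Injury scored at 21 days after treatment against solvent-sprayed controls; expected additive effect of mixtures calculated by Colby's equation.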

sandbur = test: Test D sandbur; format: in vivo, Cenchrus echinatus; conditions: Postemergence, 0 to 100 scale
[6] = Rate 16 g/ha, 0 no injury, 100 complete control
[7] = Rate 32 g/ha, 0 no injury, 100 complete control
[8] = Rate 64 g/ha, 0 no injury, 100 complete control
[9] = Rate 125 g/ha, 0 no injury, 100 complete control
[10] = Alone: Cmpd. rate 70, Rimsulfuron 0
[11] = Alone: Cmpd. rate 105, Rimsulfuron 0

CC(C)N(C(=O)n1oc(=O)n(C(C)C)c1=O)c1ccc(F)cc1 [Compound 131]
Plant response rating, Spanishneedles (Spanishneedles; [6]): 0 | Plant response rating, Spanishneedles (Spanishneedles; [7]): 0 | Spanishneedles plant response rating (Spanishneedles; [8]): 0 | Spanishneedles plant response rating (Spanishneedles; [9]): 70 | Plant response rating, Spanishneedles (Spanishneedles; Rate 250 g/ha): 60 | Plant response rating, Guineagrass (guineagrass; [6]): 0 | Plant response rating, Guineagrass (guineagrass; [7]): 20 | Plant response rating, Guineagrass (guineagrass; [8]): 100 | Plant response rating, Guineagrass (guineagrass; [9]): 100 | Plant response rating, Guineagrass (guineagrass; Rate 250 g/ha): 100 | Plant response rating, Green foxtail (Green foxtail [1]; Rate 64 g/ha): 100 | Plant response rating, Green foxtail (Green foxtail [1]; Rate 125 g/ha): 100 | Plant response rating, Green foxtail (Green foxtail [2]; Rate 16 g/ha): 0 | Plant response rating, Green foxtail (Green foxtail [2]; Rate 32 g/ha): 60 | Plant response rating, C. ragweed (common ragweed; [6]): 0 | Plant response rating, C. ragweed (common ragweed; [7]): 0 | Plant response rating, C. ragweed (common ragweed; [8]): 0 | Plant response rating, C. ragweed (common ragweed; [9]): 90 | Plant response rating, C. ragweed (common ragweed; Rate 250 g/ha): 100 | Plant response rating, Itchgrass (itchgrass; [6]): 0 | Plant response rating, Itchgrass (itchgrass; [7]): 0 | Plant response rating, Itchgrass (itchgrass; [8]): 20 | Plant response rating, Itchgrass (itchgrass; [9]): 100 | Plant response rating, Itchgrass (itchgrass; Rate 250 g/ha): 100 | Plant response rating, Windgrass (windgrass; Rate 62 g/ha, 0 to 100 scale): 85 | Windgrass plant response rating (windgrass; Rate 250 g/ha, 0 to 100 scale where 0 is no effect and 100 is complete control): 90 | Plant response rating, Green foxtail (Green foxtail [3]): 100 | CHEAL Observed [4, 10]: 60% | CHEAL Observed [4, 11]: 95% | DIGSA Observed [5, 10]: 100% | DIGSA Observed [5, 11]: 100% | Plant response rating, Sandbur (sandbur; [6]): 0 | Plant response rating, Sandbur (sandbur; [7]): 0 | Sandbur plant response rating (sandbur; [8]): 100 | Sandbur plant response rating (sandbur; [9]): 100 | Plant response rating, Sandbur (sandbur; Rate 250 g/ha): 100

Source: patent US6737383B1, “Herbicidal oxadiazolidines” (priority 1999, dated 2004)
